Literature values in US20140294790A1, “METHOD OF PREVENTING, CONTROLLING AND AMELIORATING URINARY TRACT INFECTIONS AND SUPPORTING DIGESTIVE HEALTH BY USING A SYNERGISTIC CRANBERRY DERIVATIVE, A D-MANNOSE COMPOSITION AND A PROPRIETARY PROBIOTIC BLEND” (U.S. NUTRACEUTICALS, LLC d/b/a Valensa International, priority 2008, published 2014).

Measured: antibacterial activity

acidophilin
demonstrated activity: Bacillus subtilis | Clostridium perfringens | Escherichia coli | Salmonella enteritidis | Salmonella typhimurium | Staphylococcus aureus
